According to paper PMC4470081, “Characterization of glutathione transferases involved in the pathogenicity of Alternaria brassicicola” (BMC Microbiology, 2015):

Assays:
Format in all cases: biochemical, Alternaria brassicicola
AbGSTFuA1 [1] = tested on: T1, AbGSTFuA1; experiment: GSH transferase, absorbance […] nm; conditions: 3 mM GSH (table note; methods say 5 mM), pH 6.5
T1 construct: E. coli BL21(DE3) pRARE

AbUre2pB1 [2] = tested on: T2, AbUre2pB1; experiment: GSH transferase, absorbance […] nm; conditions: 3 mM GSH (table note; methods say 5 mM), phosphate pH 7.5
T2 construct: E. coli BL21(DE3) pRARE

AbGSTFuA1 [3] = tested on: T1, AbGSTFuA1; experiment: GSH transferase, absorbance […] nm; conditions: 3 mM GSH (table note; methods say 5 mM), phosphate pH 7.5
AbGTT1.2 [4] = tested on: T3, AbGTT1.2; experiment: GSH transferase, absorbance […] nm; conditions: 3 mM GSH (table note; methods say 5 mM), phosphate pH 7.5
T3 construct: E. coli BL21(DE3) pRARE

AbGTT1.2 [5] = tested on: T3, AbGTT1.2; experiment: peroxidase, glutathione reductase/NADPH coupled, […] nm; conditions: 3 mM GSH (table note; methods say 2 mM), Tris-HCl pH 8.0
AbUre2pB1 [6] = tested on: T2, AbUre2pB1; experiment: as above; conditions: 3 mM GSH (table note; methods say 2 mM), Tris-HCl pH 8.0

`C=CCN=C=S` [Al-ITC] showed a Km (AbGSTFuA1 [1]) of 120 ± 20 µM.

Compound `S=C=NCc1ccccc1` [Bz-ITC] has a Km (AbGSTFuA1 [1]) of 180 ± 30 µM.

In the case of `O=[N+]([O-])c1ccc(Cl)c([N+](=O)[O-])c1` [CDNB, 1-chloro-2,4-dinitrobenzene], the Km (AbUre2pB1 [2]) is reported as 5010 ± 400 µM, the Km (AbGSTFuA1 [3]) is reported as 400 ± 20 µM and the Km (AbGTT1.2 [4]) is reported as 1820 ± 330 µM.

`CC(C)(OO)c1ccccc1` [Cu-OOH] gave a Km (AbGTT1.2 [5]) of 120 ± 40 µM and a Km (AbUre2pB1 [6]) of 770 ± 60 µM.

`S=C=NCCc1ccccc1` [Ph-ITC] gave a Km (AbGSTFuA1 [1]) of 110 ± 20 µM.
